How the values were obtained:
Format in all cases: in vivo
[1] = tested on: aphids; test: Insecticidal activity on aphids; conditions: experimental data omitted
[2] = tested on: diamondback moth larvae; test: Stomach poisoning (oral toxicity) of diamondback moth larvae; conditions: for Average Corrected Death Rate (%), stomach poisoning: 96 h
Procedure: Test Insects: Artificial subculture breeding of diamondback moths collected at Xinqiao greenhouse vegetable field in Wenzhou was carried out in a thermostat illumination incubator and the second-instar larvae breeds of a consistent size and color were picked for tests.
(§1) Test Method: • Preparing N6-(2-hydroxyethyl)-adenosine solutions of various concentrations; • Diluting the 20% N6-(2-hydroxyethyl)-adenosine suspension to make solutions with 1000 mg/L, 800 mg/L, 600 mg/L, 400 mg/L, and 200 mg/L active ingredient concentrations, respectively, for testing the roles of N6-(2-hydroxyethyl)-adenosine in stomach poisoning of diamondback moth larvae. • Diluting the 20% N6-(2-hydroxyethyl)-adenosine suspending agent to make solutions with 300 mg/L, 250 mg/L, 200 mg/L, 150 mg/L and 100 mg/L active ingredient concentrations, respectively, to test the roles of N6-(2-hydroxyethyl)-adenosine in suppressing feeding and retarding development of diamondback moth larvae.
Cut healthy, fresh cabbage leaves in small pieces that are 7 cm in diameters. Smear these pieces with various spore suspensions and leave them to dry naturally. Repeat the smearing process 3 times, and then put the leaves in plastic Petri-dishes with tiny holes that are 2 cm in diameter. Cover the dishes with nylon membranes to keep the leaves fresh.
Pick out healthy indoor bred third-instar diamondback moth larvae of similar sizes with a writing brush, and inoculate them onto the cabbage leaves. Make 4 replicas of the treatments, each of which should contain 20 tested larvae. Cultivate the dishes in an incubator set to 25±1° C., 75˜80% relative humidity and 16 L:8D illumination. Observe and record the number of larvae that die of infection every day. Use 0.1% triton solution as a blank control and use the Abbott formula for correction of death rates. Corrected Death Rate (%)=[(Death Rate of the Treatment Group−Death Rate of the Control Group)/(1−Death Rate of the Control Group)]×100.
(§2) The results obtained were analyzed for significances of difference using Ducan's New Multiple Range Method. The various lowercase letters following the data in the same column indicate significant differences at a level of 0.05 level (P<0.05). The various capital letters following the data in the same column indicate significant differences at a level of 0.01 (P<0.01).

[3] = tested on: diamondback moth larvae; test: Development retardation (weight gain inhibition) of diamondback moth larvae; conditions: for Average Weight (10 Tested Larvae) (mg) Δ4d: weight gain
Procedure: as §1
Soak the cabbage leaves (7 cm in diameters) in the prepared solutions for 30 seconds, take the leaves out, leave them to dry, and then transfer the dried leaves to a Petri-dish (9 cm in diameter) cushioned with a wet filter paper. Inoculate 15 weighed third-instar diamondback moth larvae onto each Petri-dish. […] Prepare four replicas for each treatment group to determine the effects of various solutions in inhibiting the weight gain of the larvae.
Weight-Gain Inhibition Rate (%)=[(the Average Weight Gain of the Control Group−the Average Weight Gain of the Treatment Group)÷the Average Weight Gain of the Control Group]×100.
as §2

[4] = tested on: diamondback moth larvae; test: Non-selective antifeeding, leaf disk dipping; conditions: third-instar larvae
Procedure: as §1
(§3) Round leaf disk dipping method was employed in this test. Prepare leaf disks out of cabbage leaves with a round hole puncher (d=2 cm), and soak the disks in N6-(2-hydroxyethyl)-adenosine solutions with different concentrations for 30 seconds. Then, take the leaf disks out and drain the excessive solution with clean blotting paper to prepare them for treatments. Use 0.1% triton solution as a blank control.
Put a good-sized piece of filter paper in a Petri-dish, and then put two processed leaf disks in the same Petri-dish and another two control leaf disks in a different dish. Inoculate three third-instar diamondback moth larvae that have been subjected to 4-hour starvation treatments onto the leaf disks and seal the dish. Prepare 10 replicas for each treatment group. After 48 hours, pick five replicas with 0% death rate to measure the leaf areas that have been consumed by the larvae with a grid paper and calculate the average leaf consumption areas. Non-Selective Antifeeding Rate (%)=[(Leaf Consumption Area in the Control Group—Leaf Consumption Area in the Treatment Group)÷Leaf Consumption Area in the Control Group]×100.

[5] = tested on: diamondback moth larvae; test: Selective antifeeding (feeding suppression), leaf disk dipping; conditions: for Selective antifeeding rate: third-instar larvae
Procedure: as §1, §3
Put a good-size piece of filter paper in a Petri-dish, and then put two processed and two control leaf disks into the same Petri-dish, which are arrayed in a cross fashion. Inoculate three third-instar diamondback moth larvae that have been subjected to 4-hour starvation treatments onto the leaf disks and seal the dish. Prepare 10 replicas for each treatment group. After 48 hours, pick five replicas with 0% death rate to measure the leaf areas that have been consumed by the larvae with a grid paper and calculate the average leaf consumption areas. Antifeeding Rate (%)=[(Leaf Consumption Area in the Control Group−Leaf Consumption Area in the Treatment Group)÷(Leaf Consumption Area in the Control Group+Leaf Consumption Area in the Treatment Group)]×100.

Q: `OCCNc1ncnc2c1ncn2[C@@H]1O[C@H](CO)[C@@H](O)[C@H]1O` [N6-(2-hydroxyethyl)-adenosine] was tested. Which “Insecticidal activity on aphids” value [1] did it give?
A: Its value is “able to kill aphids”.

Q: What about the “Average Corrected Death Rate (%), stomach poisoning” value ([2]; 800 mg/L) of the same molecule?
A: Its value is 84.21%.

Q: And the “Average Corrected Death Rate (%), stomach poisoning” value ([2]; 1000 mg/L)?
A: Its value is 86.84%.

Q: What about the “Post-treatment death rates of the larvae” value ([2]; 25-hour post-treatment, 1000 to 200 mg/L) of the same molecule?
A: Its value is “below 30%”.

Q: What about the “Lethal effect on diamondback moth” value ([2]; in vivo) of the same molecule?
A: The value was “strong lethal effect”.

Q: And the “Average Weight (10 Tested Larvae) (mg) Δ4d” value (from here on “Average Weight … (mg) Δ4d”) ([3]; 100 mg/L)?
A: Its value is 4.13 mg.

Q: And the “Average Weight … (mg) Δ4d” value ([3]; 150 mg/L)?
A: Its value is 2.40 mg.

Q: What about the “Average Weight … (mg) Δ4d” value ([3]; 200 mg/L) of the same molecule?
A: The value was 1.33 mg.

Q: And the “Average Weight … (mg) Δ4d” value ([3]; 250 mg/L)?
A: Its value is 0.65 mg.

Q: What about the “Average Weight … (mg) Δ4d” value ([3]; 300 mg/L) of the same molecule?
A: Its value is 0.48 mg.

Q: What about the inhibition at 100 µg/mL ([3]; Plutella xylostella, 72 h, 100 mg/L, 3 days after treatment, third-instar larvae, read-out: Weight Gain Inhibition Rate (%)) of the same molecule?
A: Its inhibition at 100 µg/mL is 18.3%.

Q: And the inhibition at 150 µg/mL ([3]; Plutella xylostella, 72 h, 150 mg/L, 3 days after treatment, third-instar larvae, read-out: Weight Gain Inhibition Rate (%))?
A: The inhibition at 150 µg/mL was 52.5%.

Q: And the inhibition at 200 µg/mL ([3]; Plutella xylostella, 72 h, 200 mg/L, 3 days after treatment, third-instar larvae, read-out: Weight Gain Inhibition Rate (%))?
A: Its inhibition at 200 µg/mL is 73.8%.

Q: What about the inhibition at 250 µg/mL ([3]; Plutella xylostella, 72 h, 250 mg/L, 3 days after treatment, third-instar larvae, read-out: Weight Gain Inhibition Rate (%)) of the same molecule?
A: Its inhibition at 250 µg/mL is 87.1%.

Q: What about the inhibition at 300 µg/mL ([3]; Plutella xylostella, 72 h, 300 mg/L, 3 days after treatment, third-instar larvae, read-out: Weight Gain Inhibition Rate (%)) of the same molecule?
A: Its inhibition at 300 µg/mL is 90.6%.

Q: What about the Non-selective antifeeding rate ([4]; 200 mg/L, 48 hour) of the same molecule?
A: The Non-selective antifeeding rate was 65.75%.

Q: And the Non-selective antifeeding rate ([4]; 250 mg/L, 48 hours)?
A: Its Non-selective antifeeding rate is 75.73%.

Q: And the Non-selective antifeeding rate ([4]; 300 mg/L, 48 hours)?
A: The Non-selective antifeeding rate was 77.64%.

Q: And the Selective antifeeding rate ([5]; 200 mg/L, 48 hour)?
A: Its Selective antifeeding rate is 71.30%.

Q: What about the Selective antifeeding rate ([5]; 250 mg/L, 48 hours) of the same molecule?
A: Its Selective antifeeding rate is 83.47%.

Q: What about the Selective antifeeding rate ([5]; 300 mg/L, 48 hours) of the same molecule?
A: Its Selective antifeeding rate is 83.82%.

Q: And the “Feeding capacity of the tested larvae (FIGS. 2 and 3)” value ([5]; 300, 250, 200, 150 and 100 mg/L)?
A: The value was “clear declines in their feeding capacity”.
